From ChEMBL document CHEMBL4507318, “Data for DCP probe BAY-985” (2021)

Assays:
[1] = molecular target: AP2-associated protein kinase 1 (Homo sapiens) (UniProt Q2M2I8)
[2] = test system: Tyrosine-protein kinase ABL1 (Homo sapiens), P00519 [T315I]
[3] = molecular target: RAC-gamma serine/threonine-protein kinase (Homo sapiens) (UniProt Q9Y243)
[4] = molecular target: Tyrosine-protein kinase Blk (Homo sapiens) (UniProt P51451)
[5] = molecular target: Serine/threonine-protein kinase B-raf (Homo sapiens) (UniProt P15056)
[6] = molecular target: Peripheral plasma membrane protein CASK (Homo sapiens) (UniProt O14936)
[7] = molecular target: Cyclin-dependent kinase 11B (Homo sapiens) (UniProt P21127)
[8] = molecular target: Cyclin-dependent kinase 11A (Homo sapiens) (UniProt Q9UQ88)
[9] = molecular target: Dual specificity protein kinase CLK1 (Homo sapiens) (UniProt P49759)
[10] = molecular target: Vascular endothelial growth factor receptor 1 (Homo sapiens) (UniProt P17948)
[11] = test system: eIF-2-alpha kinase GCN2 (Homo sapiens), Q9P2K8 [S808G]
[12] = molecular target: Tyrosine-protein kinase HCK (Homo sapiens) (UniProt P08631)
[13] = molecular target: Homeodomain-interacting protein kinase 1 (Homo sapiens) (UniProt Q86Z02)
[14] = molecular target: Homeodomain-interacting protein kinase 4 (Homo sapiens) (UniProt Q8NE63)
[15] = molecular target: Serine/threonine-protein kinase LATS1 (Homo sapiens) (UniProt O95835)
[16] = molecular target: Mitogen-activated protein kinase kinase kinase 2 (Homo sapiens) (UniProt Q9Y2U5)
[17] = molecular target: Mitogen-activated protein kinase kinase kinase kinase 4 (Homo sapiens) (UniProt O95819)
[18] = molecular target: Dual specificity mitogen-activated protein kinase kinase 3 (Homo sapiens) (UniProt P46734)
[19] = molecular target: Maternal embryonic leucine zipper kinase (Homo sapiens) (UniProt Q14680)
[20] = molecular target: Myosin-IIIa (Homo sapiens) (UniProt Q8NEV4)
[21] = molecular target: Serine/threonine-protein kinase Nek3 (Homo sapiens) (UniProt P51956)
[22] = molecular target: Serine/threonine-protein kinase Nek4 (Homo sapiens) (UniProt P51957)
[23] = molecular target: Serine/threonine-protein kinase Nek5 (Homo sapiens) (UniProt Q6P3R8)
[24] = molecular target: Serine/threonine-protein kinase Nek9 (Homo sapiens) (UniProt Q8TD19)
[25] = molecular target: Serine/threonine-protein kinase NIM1 (Homo sapiens) (UniProt Q8IY84)
[26] = molecular target: Serine/threonine-protein kinase PAK 5 (Homo sapiens) (UniProt Q9P286)
[27] = molecular target: Phosphatidylinositol 3-kinase C2 domain-containing subunit gamma (Homo sapiens) (UniProt O75747)
[28] = molecular target: Serine/threonine-protein kinase pim-3 (Homo sapiens) (UniProt Q86V86)
[29] = molecular target: Phosphatidylinositol 5-phosphate 4-kinase type-2 gamma (Homo sapiens) (UniProt Q8TBX8)
[30] = molecular target: Serine/threonine-protein kinase D3 (Homo sapiens) (UniProt O94806)
[31] = molecular target: cAMP-dependent protein kinase catalytic subunit PRKX (Homo sapiens) (UniProt P51817)
[32] = molecular target: Serine/threonine-protein kinase SIK3 (Homo sapiens) (UniProt Q9Y2K2)
[33] = molecular target: Ribosomal protein S6 kinase alpha-3 (Homo sapiens) (UniProt P51812)
[34] = molecular target: Serine/threonine-protein kinase 16 (Homo sapiens) (UniProt O75716)
[35] = molecular target: Serine/threonine-protein kinase 35 (Homo sapiens) (UniProt Q8TDR2)
[36] = molecular target: TGF-beta receptor type-2 (Homo sapiens) (UniProt P37173)
[37] = molecular target: NT-3 growth factor receptor (Homo sapiens) (UniProt Q16288)
[38] = molecular target: Testis-specific serine/threonine-protein kinase 3 (Homo sapiens) (UniProt Q96PN8)
[39] = molecular target: Non-receptor tyrosine-protein kinase TYK2 (Homo sapiens) (UniProt P29597)
[40] = molecular target: Serine/threonine-protein kinase ULK1 (Homo sapiens) (UniProt O75385)
[41] = molecular target: Mitogen-activated protein kinase kinase kinase 19 (Homo sapiens) (UniProt Q56UN5)
[42] = molecular target: 5-hydroxytryptamine receptor 1E (Homo sapiens) (UniProt P28566); conditions: Compound concentration 10.0 uM
[43] = molecular target: D(2) dopamine receptor (Homo sapiens) (UniProt P14416); conditions: Compound concentration 10.0 uM
[44] = molecular target: Mu-type opioid receptor (Homo sapiens) (UniProt P35372); conditions: Compound concentration 10.0 uM
[45] = molecular target: Delta-type opioid receptor (Homo sapiens) (UniProt P41143); conditions: Compound concentration 10.0 uM
[46] = Compound concentration 1000.0 nM
[47] = Compound concentration 100.0 nM

Mitogen-activated protein kinase kinase kinase 19 (Homo sapiens), sequence (Q56UN5 whole entry): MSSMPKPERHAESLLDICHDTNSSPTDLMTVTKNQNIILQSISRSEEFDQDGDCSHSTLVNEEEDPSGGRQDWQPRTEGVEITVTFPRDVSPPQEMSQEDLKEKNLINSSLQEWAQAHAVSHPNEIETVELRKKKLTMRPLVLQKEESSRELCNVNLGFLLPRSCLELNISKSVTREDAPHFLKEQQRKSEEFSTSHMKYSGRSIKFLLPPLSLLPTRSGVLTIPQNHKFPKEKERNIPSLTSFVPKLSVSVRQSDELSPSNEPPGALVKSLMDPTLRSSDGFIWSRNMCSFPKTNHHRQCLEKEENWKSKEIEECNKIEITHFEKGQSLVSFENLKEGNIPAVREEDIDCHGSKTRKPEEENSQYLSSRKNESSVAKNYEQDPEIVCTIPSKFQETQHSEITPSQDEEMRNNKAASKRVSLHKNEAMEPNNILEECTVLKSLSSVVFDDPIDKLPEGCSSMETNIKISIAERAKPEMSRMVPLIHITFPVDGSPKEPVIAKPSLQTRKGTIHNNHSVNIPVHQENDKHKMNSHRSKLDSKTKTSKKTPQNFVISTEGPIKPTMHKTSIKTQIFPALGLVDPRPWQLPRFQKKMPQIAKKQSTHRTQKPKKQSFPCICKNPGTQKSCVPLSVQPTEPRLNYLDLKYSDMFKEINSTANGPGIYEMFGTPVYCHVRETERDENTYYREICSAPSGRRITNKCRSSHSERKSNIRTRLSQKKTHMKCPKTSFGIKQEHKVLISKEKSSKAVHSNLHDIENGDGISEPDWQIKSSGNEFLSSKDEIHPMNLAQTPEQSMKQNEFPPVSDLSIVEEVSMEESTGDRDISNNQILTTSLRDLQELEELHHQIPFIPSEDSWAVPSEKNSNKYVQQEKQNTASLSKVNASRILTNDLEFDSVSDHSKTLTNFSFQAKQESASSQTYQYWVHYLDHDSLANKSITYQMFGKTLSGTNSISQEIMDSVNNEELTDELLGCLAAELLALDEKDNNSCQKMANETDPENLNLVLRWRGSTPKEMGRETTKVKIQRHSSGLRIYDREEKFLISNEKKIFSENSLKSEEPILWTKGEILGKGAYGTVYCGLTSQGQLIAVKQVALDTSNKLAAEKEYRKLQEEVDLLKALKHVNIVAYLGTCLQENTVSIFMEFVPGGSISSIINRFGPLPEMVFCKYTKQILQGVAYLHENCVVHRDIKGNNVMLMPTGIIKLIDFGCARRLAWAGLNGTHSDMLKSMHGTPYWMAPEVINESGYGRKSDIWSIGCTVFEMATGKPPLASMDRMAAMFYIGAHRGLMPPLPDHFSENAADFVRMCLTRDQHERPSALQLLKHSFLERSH
Myosin-IIIa (Homo sapiens), sequence (Q8NEV4 whole entry): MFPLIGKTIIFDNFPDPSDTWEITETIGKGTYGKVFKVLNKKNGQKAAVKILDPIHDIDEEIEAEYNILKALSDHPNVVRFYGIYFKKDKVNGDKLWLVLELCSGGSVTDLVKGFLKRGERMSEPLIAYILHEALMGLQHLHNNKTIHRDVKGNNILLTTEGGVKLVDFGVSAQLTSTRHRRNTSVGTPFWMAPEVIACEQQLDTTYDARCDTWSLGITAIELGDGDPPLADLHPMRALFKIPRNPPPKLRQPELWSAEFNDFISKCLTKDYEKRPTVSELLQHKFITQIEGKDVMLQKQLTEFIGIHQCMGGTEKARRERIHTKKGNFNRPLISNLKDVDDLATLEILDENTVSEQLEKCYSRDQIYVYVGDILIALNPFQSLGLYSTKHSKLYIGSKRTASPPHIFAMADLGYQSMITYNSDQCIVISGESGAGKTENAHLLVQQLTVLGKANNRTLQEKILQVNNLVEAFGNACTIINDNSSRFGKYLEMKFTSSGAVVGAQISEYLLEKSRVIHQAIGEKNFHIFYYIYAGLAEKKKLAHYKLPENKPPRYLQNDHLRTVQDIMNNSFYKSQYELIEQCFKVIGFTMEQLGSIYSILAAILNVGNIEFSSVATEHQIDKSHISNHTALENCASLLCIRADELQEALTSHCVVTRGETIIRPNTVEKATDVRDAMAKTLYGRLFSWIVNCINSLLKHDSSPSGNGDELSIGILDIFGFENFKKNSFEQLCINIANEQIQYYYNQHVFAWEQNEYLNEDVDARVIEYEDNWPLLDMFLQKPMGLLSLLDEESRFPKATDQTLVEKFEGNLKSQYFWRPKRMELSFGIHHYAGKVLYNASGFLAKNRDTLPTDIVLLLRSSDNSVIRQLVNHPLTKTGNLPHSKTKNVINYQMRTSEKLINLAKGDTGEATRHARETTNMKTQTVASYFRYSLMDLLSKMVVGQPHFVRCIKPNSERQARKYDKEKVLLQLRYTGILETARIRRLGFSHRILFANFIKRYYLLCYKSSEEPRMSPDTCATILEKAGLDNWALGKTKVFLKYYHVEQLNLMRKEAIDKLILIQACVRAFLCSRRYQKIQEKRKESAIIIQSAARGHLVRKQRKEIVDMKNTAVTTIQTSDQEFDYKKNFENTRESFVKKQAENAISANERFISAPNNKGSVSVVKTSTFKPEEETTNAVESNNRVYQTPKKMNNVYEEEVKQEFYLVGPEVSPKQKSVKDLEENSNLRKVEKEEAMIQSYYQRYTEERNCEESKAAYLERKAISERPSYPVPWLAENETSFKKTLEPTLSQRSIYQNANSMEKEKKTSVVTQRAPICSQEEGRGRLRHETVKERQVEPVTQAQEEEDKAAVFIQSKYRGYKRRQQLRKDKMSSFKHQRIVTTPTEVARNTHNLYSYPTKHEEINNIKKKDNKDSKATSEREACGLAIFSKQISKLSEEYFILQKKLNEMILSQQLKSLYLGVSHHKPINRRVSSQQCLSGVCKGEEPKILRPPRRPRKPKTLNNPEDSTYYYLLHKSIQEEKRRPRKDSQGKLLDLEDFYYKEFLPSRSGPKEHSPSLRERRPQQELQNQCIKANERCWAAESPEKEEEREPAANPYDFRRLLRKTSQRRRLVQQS
Peripheral plasma membrane protein CASK (Homo sapiens), sequence (O14936 whole entry): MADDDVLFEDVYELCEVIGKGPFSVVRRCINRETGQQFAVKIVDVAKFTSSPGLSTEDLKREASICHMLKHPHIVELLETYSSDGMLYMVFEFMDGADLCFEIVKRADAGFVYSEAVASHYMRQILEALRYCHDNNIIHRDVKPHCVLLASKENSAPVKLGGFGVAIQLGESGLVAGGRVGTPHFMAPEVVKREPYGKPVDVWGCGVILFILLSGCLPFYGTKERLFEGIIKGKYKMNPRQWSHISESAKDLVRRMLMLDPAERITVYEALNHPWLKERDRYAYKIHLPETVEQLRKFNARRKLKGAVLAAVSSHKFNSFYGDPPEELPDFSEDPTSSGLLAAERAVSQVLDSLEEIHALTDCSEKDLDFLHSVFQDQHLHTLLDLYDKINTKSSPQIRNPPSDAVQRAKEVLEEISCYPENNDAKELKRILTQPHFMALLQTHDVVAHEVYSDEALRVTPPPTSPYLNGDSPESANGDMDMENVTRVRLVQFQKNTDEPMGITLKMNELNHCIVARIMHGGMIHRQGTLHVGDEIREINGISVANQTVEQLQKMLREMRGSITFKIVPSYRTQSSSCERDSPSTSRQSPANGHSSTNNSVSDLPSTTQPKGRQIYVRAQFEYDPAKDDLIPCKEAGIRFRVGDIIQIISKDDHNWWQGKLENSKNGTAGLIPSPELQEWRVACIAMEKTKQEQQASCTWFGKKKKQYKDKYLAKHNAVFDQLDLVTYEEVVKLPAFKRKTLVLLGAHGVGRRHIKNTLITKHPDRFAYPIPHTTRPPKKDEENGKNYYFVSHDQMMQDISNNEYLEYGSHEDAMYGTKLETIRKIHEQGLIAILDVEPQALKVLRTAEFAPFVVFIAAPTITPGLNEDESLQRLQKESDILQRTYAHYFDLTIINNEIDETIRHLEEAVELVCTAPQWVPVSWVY
Serine/threonine-protein kinase PAK 5 (Homo sapiens), sequence (Q9P286 whole entry, looked up, the tested form may be a part): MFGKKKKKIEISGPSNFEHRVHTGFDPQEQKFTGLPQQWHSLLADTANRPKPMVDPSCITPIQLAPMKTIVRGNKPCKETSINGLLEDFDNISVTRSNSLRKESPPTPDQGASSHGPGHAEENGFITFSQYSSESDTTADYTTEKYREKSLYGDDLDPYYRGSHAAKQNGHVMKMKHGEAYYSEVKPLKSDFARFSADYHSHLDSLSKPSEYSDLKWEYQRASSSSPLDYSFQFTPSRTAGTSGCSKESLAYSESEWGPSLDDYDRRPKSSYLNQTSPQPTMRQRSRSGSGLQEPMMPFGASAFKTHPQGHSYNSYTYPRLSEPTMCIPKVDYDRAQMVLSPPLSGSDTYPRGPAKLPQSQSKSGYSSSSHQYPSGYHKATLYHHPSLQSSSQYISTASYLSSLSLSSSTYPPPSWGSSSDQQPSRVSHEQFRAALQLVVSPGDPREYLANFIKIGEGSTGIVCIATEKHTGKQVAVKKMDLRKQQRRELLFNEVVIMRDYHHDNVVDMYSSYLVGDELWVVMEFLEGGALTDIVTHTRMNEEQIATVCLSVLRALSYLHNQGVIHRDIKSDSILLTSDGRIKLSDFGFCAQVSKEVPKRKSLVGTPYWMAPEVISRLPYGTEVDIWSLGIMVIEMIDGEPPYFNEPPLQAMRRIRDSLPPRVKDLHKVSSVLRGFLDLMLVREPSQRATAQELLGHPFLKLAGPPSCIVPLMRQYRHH
Tyrosine-protein kinase HCK (Homo sapiens), sequence (P08631 2-526 limits assumed): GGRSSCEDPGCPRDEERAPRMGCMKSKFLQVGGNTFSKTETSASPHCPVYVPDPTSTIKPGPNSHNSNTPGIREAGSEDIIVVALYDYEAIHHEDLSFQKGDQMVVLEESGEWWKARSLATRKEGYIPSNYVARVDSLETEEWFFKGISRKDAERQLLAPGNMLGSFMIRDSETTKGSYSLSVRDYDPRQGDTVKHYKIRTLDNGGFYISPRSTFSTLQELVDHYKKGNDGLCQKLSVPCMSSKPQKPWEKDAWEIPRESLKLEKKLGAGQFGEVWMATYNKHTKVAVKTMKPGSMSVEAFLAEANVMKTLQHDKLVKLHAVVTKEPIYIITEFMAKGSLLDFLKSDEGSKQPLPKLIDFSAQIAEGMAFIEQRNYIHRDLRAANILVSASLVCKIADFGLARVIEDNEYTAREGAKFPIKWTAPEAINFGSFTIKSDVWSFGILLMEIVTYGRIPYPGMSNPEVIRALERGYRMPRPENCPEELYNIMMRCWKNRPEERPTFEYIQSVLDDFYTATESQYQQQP

## CN(C)c1ncnc(-c2ccc3nc(Nc4cc(CN5CCN(C(=O)CC(F)(F)F)CC5)ccn4)[nH]c3c2)c1Cl [BAY-440]
[1]; [46]
  residual activity: 85%
[2]; [46]
  residual activity: 46%
[3]; [46]
  residual activity: 96%
[4]; [46]
  residual activity: 82%
[5]; [46]
  residual activity: 83%
[6]; [46]
  residual activity: 89%
[7]; [46]
  residual activity: 100%
[8]; [46]
  residual activity: 100%
[9]; [46]
  residual activity: 71%
[10]; [46]
  residual activity: 100%
[11]; [46]
  residual activity: 100%
[12]; [46]
  residual activity: 80%
[13]; [46]
  residual activity: 74%
[14]; [46]
  residual activity: 100%
[15]; [46]
  residual activity: 95%
[16]; [46]
  residual activity: 78%
[17]; [46]
  residual activity: 100%
[18]; [46]
  residual activity: 73%
[19]; [46]
  residual activity: 95%
[20]; [46]
  residual activity: 100%
[21]; [46]
  residual activity: 69%
[22]; [46]
  residual activity: 84%
[23]; [46]
  residual activity: 100%
[24]; [46]
  residual activity: 100%
[25]; [46]
  residual activity: 61%
[26]; [46]
  residual activity: 85%
[27]; [46]
  residual activity: 83%
[28]; [46]
  residual activity: 100%
[29]; [46]
  residual activity: 95%
[30]; [46]
  residual activity: 88%
[31]; [46]
  residual activity: 100%
[32]; [46]
  residual activity: 83%
[33]; [46]
  residual activity: 81%
[34]; [46]
  residual activity: 100%
[35]; [46]
  residual activity: 83%
[36]; [46]
  residual activity: 85%
[37]; [46]
  residual activity: 61%
[38]; [46]
  residual activity: 62%
[39]; [46]
  residual activity: 51%
[40]; [46]
  residual activity: 75%
[41]; [46]
  residual activity: 15%
[42]
  inhibition: 29.3%
[43]
  inhibition: 10.6%
[44]
  inhibition: 14.1%
[45]
  inhibition: 2.06%

## C[C@H](c1ccnc(Nc2nc3ccc(-c4cc(N(C)C)ncn4)cc3[nH]2)c1)N1CCN(C(=O)CC(F)(F)F)CC1 [BAY-985]
[1]; [47]
  residual activity: 60%
[2]; [47]
  residual activity: 100%
[3]; [47]
  residual activity: 100%
[4]; [47]
  residual activity: 79%
[5]; [47]
  residual activity: 100%
[6]; [47]
  residual activity: 100%
[7]; [47]
  residual activity: 100%
[8]; [47]
  residual activity: 84%
[9]; [47]
  residual activity: 90%
[10]; [47]
  residual activity: 100%
[11]; [47]
  residual activity: 58%
[12]; [47]
  residual activity: 91%
[13]; [47]
  residual activity: 95%
[14]; [47]
  residual activity: 100%
[15]; [47]
  residual activity: 100%
[16]; [47]
  residual activity: 100%
[17]; [47]
  residual activity: 91%
[18]; [47]
  residual activity: 97%
[19]; [47]
  residual activity: 100%
[20]; [47]
  residual activity: 100%
[21]; [47]
  residual activity: 100%
[22]; [47]
  residual activity: 100%
[23]; [47]
  residual activity: 100%
[24]; [47]
  residual activity: 100%
[25]; [47]
  residual activity: 100%
[26]; [47]
  residual activity: 100%
[27]; [47]
  residual activity: 94%
[28]; [47]
  residual activity: 87%
[29]; [47]
  residual activity: 96%
[30]; [47]
  residual activity: 100%
[31]; [47]
  residual activity: 99%
[32]; [47]
  residual activity: 100%
[33]; [47]
  residual activity: 100%
[34]; [47]
  residual activity: 86%
[35]; [47]
  residual activity: 100%
[36]; [47]
  residual activity: 98%
[37]; [47]
  residual activity: 100%
[38]; [47]
  residual activity: 74%
[39]; [47]
  residual activity: 100%
[40]; [47]
  residual activity: 95%
[41]; [47]
  residual activity: 10%
[42]
  inhibition: 13.6%
[43]
  inhibition: 5.66%
[44]
  inhibition: 26%
[45]
  inhibition: 29%
